Results on 11 compounds are retold here after ChEMBL document CHEMBL1687935, “Ferrocenyl chalcones versus organic chalcones: a comparative study of their nematocidal activity” (Bioorg Med Chem, 2011).

Data set [1] has as its system Caenorhabditis elegans. The data set is described as follows: Nematocidal activity against Caenorhabditis elegans assessed as mortality on day 3. The class given is functional. Also noted: concentration or dose not given beside the values.
Data set [2] relates to Caenorhabditis elegans. The data set is described as follows: Nematocidal activity against Caenorhabditis elegans assessed as inhibition of reproduction on day 3. It is filed as functional.
The next data set relates to Plasmodium falciparum. Description: Antiplasmodial activity against Plasmodium falciparum. The class given is functional, organism-based.
Data set [3] can be described thus: Inhibition of Globodera rostochiensis hatching. It is filed as functional.
Data set [4] can be described thus: Toxicity against Globodera rostochiensis.
The nature of data set [5]: Toxicity against Globodera pallida.
Data set [6] is described as follows: Inhibition of Globodera pallida hatching. It is filed as functional.

The structures appear in SMILES notation. Activity calls are given as the source filed them. The calls are words filed in the database; no cut-off is given here.

As to `COc1ccc(C(=O)/C=C/c2ccccc2)c(OC)c1`, the Activity in the data set with Caenorhabditis elegans [1] came out at 100%. In the data set on Caenorhabditis elegans [2], the “inhibition (INH)” value was 0%.
For `O=C(/C=C/c1ccccc1)c1cccc(Cl)c1`, in the data set on Caenorhabditis elegans [1], the Activity is recorded as 100%. Besides, the “inhibition (INH)” value in the data set with Caenorhabditis elegans [2] is on record as 0%.
For `O=C(/C=C/c1ccccc1)c1ccc(F)cc1F` the same measures were 100% and 0%.
With `O=C(/C=C/c1ccccc1)c1ccco1`, the outcome in the data set on Caenorhabditis elegans [1] was Active. Also, in the data set with Caenorhabditis elegans [2], the inhibition result is “Active”.
For `O=C(/C=C/c1ccccc1)c1ccccc1Cl`, the outcome with Caenorhabditis elegans [1] was Active. Moreover, the inhibition entry in the data set with Caenorhabditis elegans [2] is “Active”.
Consider `CCCCOc1ccc(C(=O)/C=C/c2ccccc2)cc1`, for which, in the data set on Caenorhabditis elegans [1], the outcome was Active. Also, the inhibition result in the data set with Caenorhabditis elegans [2] is “Active”.
Regarding `O=C(/C=C/c1cccnc1)c1ccc(F)cc1`, it took 0.017 mM to reach half-maximal inhibition with Plasmodium falciparum (IC50). In addition, the Activity in the data set on Caenorhabditis elegans [1] was 100%. Further, the “inhibition (INH)” value in the data set with Caenorhabditis elegans [2] amounted to 0%.
In the case of `O=C(/C=C/c1ccccc1)c1cccs1`, the Activity with Caenorhabditis elegans [1] is listed as 100%. The “inhibition (INH)” value in the data set on Caenorhabditis elegans [2] worked out at 0%.
For `O=C(/C=C/c1ccccc1)c1ccc(Cl)cc1Cl` the same measures were 100% and 0%.
`O=C(/C=C/c1ccccc1)c1ccccc1` [CHALCONE]: the IC50 in data set [3] and in data set [6] was 7 mM throughout. Also, the LC50 in data set [4] and in data set [5] was 33 mM each time. Besides, the Activity with Caenorhabditis elegans [1] came out at 100%. The “inhibition (INH)” value in the data set with Caenorhabditis elegans [2] is on record as 0%.
Regarding `CCOc1ccc(C(=O)/C=C/c2ccccc2)cc1`, the Activity in the data set on Caenorhabditis elegans [1] was determined as 100%. In the data set on Caenorhabditis elegans [2], the “inhibition (INH)” value is listed as 0%.
